Measurements published in publication PMC8206134, “Structural basis of mechano-chemical coupling by the mitotic kinesin KIF14” (Nature Communications, 2021).

Columns and labels:
KIF14 K735 (MT-K735) [1] = target: T1, KIF14 K735 (MT-K735) (Mus musculus, UniProt L0N7N1); test: cryo-EM structure; type: binding; conditions: microtubule-bound; 4 mM ADP plus 2 mM AlCl3 and 10 mM KF; AlFx and Mg2+ densities near noise; open* conformation
T1 construct: core motor domain N391-L735, no neck-linker; GST tag cleaved (PreScission), E. coli BL21(DE3) pLysS; monomer; with Tubulin alpha chain (Sus scrofa, porcine brain); Tubulin beta chain (Sus scrofa, porcine brain)
T1 sequence (L0N7N1 391-735): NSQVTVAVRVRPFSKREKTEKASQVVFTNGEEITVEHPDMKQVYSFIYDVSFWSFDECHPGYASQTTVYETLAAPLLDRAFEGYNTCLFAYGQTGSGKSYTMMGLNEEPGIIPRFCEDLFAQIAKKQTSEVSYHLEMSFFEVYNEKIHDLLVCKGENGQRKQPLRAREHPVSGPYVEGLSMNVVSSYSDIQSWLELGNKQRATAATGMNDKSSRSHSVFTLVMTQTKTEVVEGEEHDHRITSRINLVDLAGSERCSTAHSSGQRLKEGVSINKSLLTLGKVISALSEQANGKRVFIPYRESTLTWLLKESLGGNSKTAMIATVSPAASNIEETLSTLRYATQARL

KIF14 K748 (MT-K748) = target: T2, KIF14 K748 (MT-K748) (Mus musculus, UniProt L0N7N1); test: malachite green phosphate assay; type: biochemical; conditions: 1 mM ATP, 2 uM paclitaxel-stabilised microtubules, 50 nM KIF14, 1 mM MgCl2, PIPES pH 6.8
T2 construct: motor domain plus 13 neck-linker residues N391-A748; GST tag cleaved (PreScission), E. coli BL21(DE3) pLysS; monomer; with Tubulin alpha chain (Sus scrofa, porcine brain); Tubulin beta chain (Sus scrofa, porcine brain)
T2 sequence (L0N7N1 391-748): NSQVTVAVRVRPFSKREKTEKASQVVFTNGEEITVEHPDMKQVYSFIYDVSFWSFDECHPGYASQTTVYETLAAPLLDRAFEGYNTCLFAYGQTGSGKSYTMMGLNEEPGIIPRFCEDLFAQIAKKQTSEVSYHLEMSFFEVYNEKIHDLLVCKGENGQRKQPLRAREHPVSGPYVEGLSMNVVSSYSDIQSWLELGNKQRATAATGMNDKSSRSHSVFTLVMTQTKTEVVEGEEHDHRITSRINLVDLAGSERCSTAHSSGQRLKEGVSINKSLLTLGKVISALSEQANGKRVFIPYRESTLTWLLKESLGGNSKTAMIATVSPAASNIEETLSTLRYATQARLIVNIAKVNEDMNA
From the text: (§1) malachite green phosphate assay on KIF14 […] (MT-[…]) | Microtubule-stimulated ATPase rate of […], […], […], and […] constructs

KIF14 K735 (MT-K735) [2] = target: T1, KIF14 K735 (MT-K735); test: malachite green phosphate assay; type: biochemical; conditions: 1 mM ATP, 2 uM paclitaxel-stabilised microtubules, 50 nM KIF14, 1 mM MgCl2, PIPES pH 6.8
From the text: as §1

KIF14 K743 (MT-K743) = target: T3, KIF14 K743 (MT-K743) (Mus musculus, UniProt L0N7N1); test: malachite green phosphate assay; type: biochemical; conditions: 1 mM ATP, 2 uM paclitaxel-stabilised microtubules, 50 nM KIF14, 1 mM MgCl2, PIPES pH 6.8
T3 construct: motor domain plus 8 neck-linker residues N391-N743; GST tag cleaved (PreScission), E. coli BL21(DE3) pLysS; monomer; with Tubulin alpha chain (Sus scrofa, porcine brain); Tubulin beta chain (Sus scrofa, porcine brain)
T3 sequence (L0N7N1 391-743): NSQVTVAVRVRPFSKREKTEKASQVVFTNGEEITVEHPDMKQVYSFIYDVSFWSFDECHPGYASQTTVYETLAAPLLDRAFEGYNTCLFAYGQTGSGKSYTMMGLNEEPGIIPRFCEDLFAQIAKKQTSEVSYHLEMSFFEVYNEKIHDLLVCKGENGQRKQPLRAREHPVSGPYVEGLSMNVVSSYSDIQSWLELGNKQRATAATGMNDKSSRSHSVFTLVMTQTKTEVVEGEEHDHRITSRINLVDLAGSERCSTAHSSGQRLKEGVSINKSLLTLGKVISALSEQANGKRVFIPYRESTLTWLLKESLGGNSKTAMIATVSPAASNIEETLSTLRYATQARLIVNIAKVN
From the text: as §1

KIF14 K755 (MT-K755) = target: T4, KIF14 K755 (MT-K755) (Mus musculus, UniProt L0N7N1); test: malachite green phosphate assay; type: biochemical; conditions: 1 mM ATP, 2 uM paclitaxel-stabilised microtubules, 50 nM KIF14, 1 mM MgCl2, PIPES pH 6.8
T4 construct: motor domain, neck-linker and part of first CC1 heptad N391-K755; GST tag cleaved (PreScission), E. coli BL21(DE3) pLysS; with Tubulin alpha chain (Sus scrofa, porcine brain); Tubulin beta chain (Sus scrofa, porcine brain)
T4 sequence (L0N7N1 391-755): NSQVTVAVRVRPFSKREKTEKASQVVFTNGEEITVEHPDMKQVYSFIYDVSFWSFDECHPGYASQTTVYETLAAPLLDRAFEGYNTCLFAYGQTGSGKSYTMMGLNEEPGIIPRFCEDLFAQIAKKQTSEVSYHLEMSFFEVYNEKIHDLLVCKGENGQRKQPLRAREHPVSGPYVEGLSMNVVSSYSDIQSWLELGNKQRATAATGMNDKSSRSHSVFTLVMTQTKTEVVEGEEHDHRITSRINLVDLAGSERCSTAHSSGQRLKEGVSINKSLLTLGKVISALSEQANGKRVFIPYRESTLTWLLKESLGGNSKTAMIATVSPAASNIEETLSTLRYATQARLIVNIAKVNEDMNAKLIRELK
From the text: as §1

[3] = target: the molecule itself; test: SEC; size-exclusion chromatography of the KIF14 constructs alone in solution, elution compared with protein standards (66, 44 and 25 kDa)

Nc1ncnc2c1ncn2[C@@H]1O[C@H](COP(=O)(O)OP(=O)(O)O)[C@@H](O)[C@H]1O [ADP]
cryo-EM structure (KIF14 K735 (MT-K735) [1]): The MT-K735-AAF and MT-K743-AAF maps contain strong densities associated with ADP

Nc1ncnc2c1ncn2[C@@H]1O[C@H](COP(=O)(O)OP(=O)(O)OP(=O)(O)O)[C@@H](O)[C@H]1O [ATP]
Microtubule-stimulated ATPase rate (KIF14 K748 (MT-K748)): Microtubule-stimulated ATPase rate of K735, K743, K748, and K755 constructs
Microtubule-stimulated ATPase rate (KIF14 K735 (MT-K735) [2]): Microtubule-stimulated ATPase rate of K735, K743, K748, and K755 constructs
Microtubule-stimulated ATPase rate (KIF14 K743 (MT-K743)): Microtubule-stimulated ATPase rate of K735, K743, K748, and K755 constructs
Microtubule-stimulated ATPase rate (KIF14 K755 (MT-K755)): Microtubule-stimulated ATPase rate of K735, K743, K748, and K755 constructs

B1: KIF14 construct K772 (residues Asn-391 to Asp-772) (domain or fragment, mouse, UniProt L0N7N1 391-772, looked up)
chain: NSQVTVAVRVRPFSKREKTEKASQVVFTNGEEITVEHPDMKQVYSFIYDVSFWSFDECHPGYASQTTVYETLAAPLLDRAFEGYNTCLFAYGQTGSGKSYTMMGLNEEPGIIPRFCEDLFAQIAKKQTSEVSYHLEMSFFEVYNEKIHDLLVCKGENGQRKQPLRAREHPVSGPYVEGLSMNVVSSYSDIQSWLELGNKQRATAATGMNDKSSRSHSVFTLVMTQTKTEVVEGEEHDHRITSRINLVDLAGSERCSTAHSSGQRLKEGVSINKSLLTLGKVISALSEQANGKRVFIPYRESTLTWLLKESLGGNSKTAMIATVSPAASNIEETLSTLRYATQARLIVNIAKVNEDMNAKLIRELKAEIEKLKAAQRSNRNID
notes: KIF14, mouse (Mus musculus), full length 1674 amino acids; Dimer in solution by size-exclusion chromatography; source: E. coli BL21 (DE3) pLysS, purified (glutathione resin, cleaved on beads with PreScission protease)
stoichiometry N [3]: 2
